Among the data in ChEMBL document CHEMBL6109123, “Structure of Mycobacterial NDH-2 Bound to a 2-Mercapto-Quinazolinone Inhibitor” (J Med Chem, 2025) are inhibition and IC50 values, retold here.

The test system of experiment [1] is Mycolicibacterium smegmatis. Nature of the experiment: Inhibition of Mycobacterium smegmatis NDH2 in inverted membrane vesicle assessed as inhibition of succinate-driven vesicle acidification by fluorescence based analysis. It is filed as cell membranes.
Experiment [2] relates to Mycolicibacterium smegmatis. Briefly: Inhibition of Mycobacterium smegmatis NDH2 in inverted membrane vesicle assessed as inhibition of […] vesicle acidification by fluorescence based analysis. It is filed as cell membranes.
Experiment [3] relates to Mycolicibacterium smegmatis. Briefly: Inhibition of Mycobacterium smegmatis GMC_MDM2 NDH2 in inverted membrane vesicle assessed as inhibition of ATP-driven vesicle acidification by fluorescence based analysis. It is filed as cell membranes.
The subject of experiment [4] is Mycolicibacterium smegmatis. Nature of the experiment: Inhibition of Mycobacterium smegmatis NDH2 in inverted membrane vesicle assessed as inhibition of […] vesicle acidification at up to 120 uM by fluorescence based analysis. It is filed as cell membranes.
The test system of experiment [5] is Mycolicibacterium smegmatis. Nature of the experiment: Inhibition of Mycobacterium smegmatis GMC_MDM2 NDH2 in inverted membrane vesicle assessed as inhibition of ATP-driven vesicle acidification at >10 uM by fluorescence based analysis. It is filed as cell membranes.
Experiment [6] is described as follows: Inhibition of recombinant Mycobacterium smegmatis NDH2 catalytic activity in presence of NADH incubated for 1 min by UV-spectrometric analysis. Also on record: species or system Mycolicibacterium smegmatis.
The subject of experiment [7] is Mycolicibacterium smegmatis. Nature of the experiment: Inhibition of Mycobacterium smegmatis NDH2 in inverted membrane vesicle assessed as inhibition of succinate-driven vesicle acidification at >10 uM by fluorescence based analysis. It is filed as cell membranes.

Structures are written as SMILES. Activity calls are given as the source filed them. No cut-off for these calls is given here.

On to `Nc1nc(Nc2ccc3nc(-c4ccc(F)cc4)cc(N)c3c2)cc(-c2ccc(Cl)cc2)n1`, for which the inhibition entry in experiment [1], in experiment [2] and in experiment [3] was “Active” in each case.
Consider `C=C(C)[C@H]1Cc2c(ccc3c2O[C@@H]2COc4cc(OC)c(OC)cc4[C@@H]2C3=O)O1`, for which, in experiment [4], the inhibition result is “inactive”.
By IC50 is commonly meant the point on the concentration scale where inhibition reaches its midpoint. In the case of `O=C(CSc1nc2ccccc2c(=O)[nH]1)NC1CCCCC1`, the inhibition result in experiment [5] is reported as “Active; Compound Showed Partial Inhibition Of Atp Driven Acidification”; in experiment [7], “Active; Compound Showed Partial Inhibition Of Succinate Driven Acidification”. The 50% inhibitory concentration (IC50) in experiment [6] was 23 nM. Also, in experiment [3], the inhibition result is “Active”.
With `Nc1nc(Nc2ccc3nc(-c4ccc(F)cc4)cc(N)c3c2)cc(-c2ccc(C(F)(F)F)cc2)n1`, the inhibition entry in experiment [1], in experiment [2] and in experiment [3] was “Active” each time.
